{"source": "PubChem BioAssay AID330", "about": "(DTP/NCI, 2004)", "tested_on": "P388 leukemia ip, CD2F1 mice, survival T/C", "assay": "NCI In Vivo Anticancer Drug Screen. Data for tumor model P388 Leukemia (intraperitoneal) in CD2F1 (CDF1) mice", "settings": "endpoint: median survival time, higher = longer survival", "in_short": "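Mice carrying the transplanted tumor received test compound or vehicle. Survival was recorded in each group, and the value is the treated-group measurement divided by that of the vehicle-treated control group.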", "key": {"[1]": {"settings": "dose: 50.0 mg/kg/injection, schedule: Q01DX005 (ip), vehicle: saline with Tween-80"}, "[2]": {"settings": "dose: 100.0 mg/kg/injection, schedule: Q01DX005 (ip), vehicle: saline with Tween-80"}, "[3]": {"settings": "dose: 200.0 mg/kg/injection, schedule: Q01DX005 (ip), vehicle: saline with Tween-80"}, "[4]": {"settings": "dose: 60.0 mg/kg/injection, schedule: Q01DX005 (ip), vehicle: saline with Tween-80"}, "[5]": {"settings": "dose: 120.0 mg/kg/injection, schedule: Q01DX005 (ip), vehicle: saline with Tween-80"}, "[6]": {"settings": "dose: 240.0 mg/kg/injection, schedule: Q01DX005 (ip), vehicle: saline with Tween-80"}}, "note": "Where “and” joins values, the source holds several entries; their conditions need not be identical. Equal values may be shown once. Inconclusive results and toxic doses are left out."}
{"compound": "C1=C2OCOC2=CC2Cc3cc4c(cc3/C=C3\\CC5=C(C=C3/C=C/12)OCO5)OCO4", "note": "(stereo unspecified)", "values": [{"measurement": "T/C", "setting": "[1]", "value": "92 % of control"}, {"measurement": "T/C", "setting": "[2]", "value": "93 % of control"}, {"measurement": "T/C", "setting": "[3]", "value": "98 % of control"}]}
{"compound": "CC1CCCC/C1=N\\N(C)C", "note": "(stereo unspecified)", "values": [{"measurement": "T/C", "setting": "[4]", "value": "100 % of control"}, {"measurement": "T/C", "setting": "[5]", "value": "94 % of control"}]}
{"compound": "O=C1c2ccccc2C(=O)N1C1CC(=O)n2c1nc1ccccc12", "note": "(stereo unspecified)", "values": [{"measurement": "T/C", "setting": "[4]", "value": "101 % of control"}, {"measurement": "T/C", "setting": "[5]", "value": "95 % of control"}, {"measurement": "T/C", "setting": "[6]", "value": "95 % of control"}]}
{"compound": "CCOCC(=O)OCC", "values": [{"measurement": "T/C", "setting": "dose: 100.0 mg/kg/injection, schedule: Q01DX009 (ip), vehicle: saline", "value": "105 % of control"}, {"measurement": "T/C", "setting": "dose: 200.0 mg/kg/injection, schedule: Q01DX009 (ip), vehicle: saline", "value": "101 % of control"}, {"measurement": "T/C", "setting": "dose: 400.0 mg/kg/injection, schedule: Q01DX009 (ip), vehicle: saline", "value": "102 % of control"}]}
{"compound": "N#CC(C(=O)C(=O)NC1C2CC3CC(C2)CC1C3)c1c(Cl)cccc1Cl", "note": "(stereo unspecified)", "values": [{"measurement": "T/C", "setting": "[4]", "value": "104 % of control"}, {"measurement": "T/C", "setting": "[5]", "value": "106 % of control"}, {"measurement": "T/C", "setting": "[6]", "value": "100 % of control"}]}
{"compound": "Cc1cc(N/N=C/c2ccc(F)cc2)c2cc3c(cc2n1)OCO3", "values": [{"measurement": "T/C", "setting": "dose: 12.5 mg/kg/injection, schedule: Q01DX005 (ip), vehicle: Klucel (hydroxypropylcellulose) (HPC)", "value": "104 % of control"}, {"measurement": "T/C", "setting": "dose: 25.0 mg/kg/injection, schedule: Q01DX005 (ip), vehicle: Klucel (hydroxypropylcellulose) (HPC)", "value": "104 % of control"}, {"measurement": "T/C", "setting": "dose: 50.0 mg/kg/injection, schedule: Q01DX005 (ip), vehicle: Klucel (hydroxypropylcellulose) (HPC)", "value": "107 % of control and 109 % of control"}]}
{"compound": "CC(C)C(C)CS(=O)(=O)OCCCCOS(=O)(=O)CC(C)C(C)C", "note": "(stereo unspecified)", "values": [{"measurement": "T/C", "setting": "dose: 50.0 mg/kg/injection, schedule: Q01DX005 (ip), vehicle: suspension in saline", "value": "103 % of control"}, {"measurement": "T/C", "setting": "dose: 100.0 mg/kg/injection, schedule: Q01DX005 (ip), vehicle: suspension in saline", "value": "105 % of control"}, {"measurement": "T/C", "setting": "dose: 200.0 mg/kg/injection, schedule: Q01DX005 (ip), vehicle: suspension in saline", "value": "112 % of control"}]}
{"compound": "O=NN(CCF)C(=O)NCCF", "values": [{"measurement": "T/C", "setting": "dose: 0.11 mg/kg/injection, schedule: Q01DX009 (ip), vehicle: saline", "value": "109 % of control"}, {"measurement": "T/C", "setting": "dose: 0.16 mg/kg/injection, schedule: Q01DX009 (ip), vehicle: saline", "value": "109 % of control"}, {"measurement": "T/C", "setting": "dose: 0.25 mg/kg/injection, schedule: Q01DX009 (ip), vehicle: saline", "value": "122 % of control"}, {"measurement": "T/C", "setting": "dose: 2.5 mg/kg/injection, schedule: Q01DX009 (ip), vehicle: saline", "value": "236 % of control"}]}
{"compound": "CC(c1ccc(Cl)cc1)N(CCN(C)C)c1ccccn1", "note": "(stereo unspecified)", "values": [{"measurement": "T/C", "setting": "dose: 15.0 mg/kg/injection, schedule: Q01DX005 (ip), vehicle: Klucel (hydroxypropylcellulose) (HPC)", "value": "103 % of control"}, {"measurement": "T/C", "setting": "dose: 30.0 mg/kg/injection, schedule: Q01DX005 (ip), vehicle: Klucel (hydroxypropylcellulose) (HPC)", "value": "104 % of control"}, {"measurement": "T/C", "setting": "dose: 60.0 mg/kg/injection, schedule: Q01DX005 (ip), vehicle: Klucel (hydroxypropylcellulose) (HPC)", "value": "111 % of control and 95 % of control"}]}
{"compound": "CCCNNC(=O)c1ccncc1", "values": [{"measurement": "T/C", "setting": "[1]", "value": "100 % of control"}, {"measurement": "T/C", "setting": "[2]", "value": "96 % of control"}, {"measurement": "T/C", "setting": "[3]", "value": "105 % of control"}]}
{"compound": "Nc1nc(Cl)cc(=O)[nH]1", "values": [{"measurement": "T/C", "setting": "dose: 50.0 mg/kg/injection, schedule: Q04DX003 (ip), vehicle: Klucel (hydroxypropylcellulose) (HPC)", "value": "94 % of control"}, {"measurement": "T/C", "setting": "dose: 100.0 mg/kg/injection, schedule: Q04DX003 (ip), vehicle: Klucel (hydroxypropylcellulose) (HPC)", "value": "102 % of control"}, {"measurement": "T/C", "setting": "dose: 200.0 mg/kg/injection, schedule: Q04DX003 (ip), vehicle: Klucel (hydroxypropylcellulose) (HPC)", "value": "94 % of control"}, {"measurement": "T/C", "setting": "dose: 400.0 mg/kg/injection, schedule: Q04DX003 (ip), vehicle: Klucel (hydroxypropylcellulose) (HPC)", "value": "94 % of control"}]}
{"compound": "CCOC(=O)Nc1nc2ccc(SC#N)cc2s1", "values": [{"measurement": "T/C", "setting": "dose: 6.25 mg/kg/injection, schedule: Q01DX009 (ip), vehicle: Klucel (hydroxypropylcellulose) (HPC)", "value": "107 % of control"}, {"measurement": "T/C", "setting": "dose: 12.5 mg/kg/injection, schedule: Q01DX009 (ip), vehicle: Klucel (hydroxypropylcellulose) (HPC)", "value": "107 % of control"}, {"measurement": "T/C", "setting": "dose: 25.0 mg/kg/injection, schedule: Q01DX009 (ip), vehicle: Klucel (hydroxypropylcellulose) (HPC)", "value": "96 % of control"}]}
{"compound": "C=C(C)CC1CN2CCc3cc(OC)c(OC)cc3C2CC1=O", "note": "(stereo unspecified)", "values": [{"measurement": "T/C", "setting": "dose: 50.0 mg/kg/injection, schedule: Q01DX009 (ip), vehicle: Klucel (hydroxypropylcellulose) (HPC)", "value": "106 % of control"}, {"measurement": "T/C", "setting": "dose: 50.0 mg/kg/injection, schedule: Q01DX009 (ip), vehicle: saline with Tween-80", "value": "102 % of control"}, {"measurement": "T/C", "setting": "dose: 100.0 mg/kg/injection, schedule: Q01DX009 (ip), vehicle: Klucel (hydroxypropylcellulose) (HPC)", "value": "104 % of control"}, {"measurement": "T/C", "setting": "dose: 100.0 mg/kg/injection, schedule: Q01DX009 (ip), vehicle: saline with Tween-80", "value": "116 % of control"}]}
